Assays:
[1] = target: T1, hDGKzeta(1-928)-N-His (DGKZ) (Homo sapiens, UniProt Q13574); assay: In vitro DGK inhibition assay (ADP-Glo, in house), DGK zeta; format: biochemical; conditions: isomer A; 2 nM DGK ζ, 50 μM ATP, 125 μM DLG in liposomes, 1 hour reaction; read-out: DGKzeta ADP Glo assay IC50
T1 construct: hDGKzeta(1-928)-N-His; His (N)
Experimental: (§1) DGK α and ζ kinase use ATP to phosphorylate the substrate 1,2-dilauroyl-sn-glycerol (DLG, incorporated in the liposomes). ATP is converted to ADP as a result of this enzymatic reaction.
(§2) After the kinase reaction, an ATP-depletion reagent is added to terminate the kinase reaction and deplete any remaining ATP, leaving only ADP. Second, a detection reagent is added to simultaneously convert ADP to ATP and allow the newly synthesized ATP to be converted to light using a coupled luciferase/luciferin reaction.
(§3) Full length DGKA and Z were expressed in Sf21 insect cells by infecting the cells with the baculovirus stock at MOI of 2. Purification of both enzymes was performed as previously described by Takahashi et al., PeerJ, 2018 (Takahashi, D.; Sakane, F. Expression and purification of human diacylglycerolkinase alpha from baculovirus-infected insect cells for structural studies. PeerJ2018, 6, No. e5449).
(§4) A concentrated liposome solution was prepared in assay buffer without DTT and BSA: 2 mM of DLG in 21 mM of total liposome (2 mM DLG/8 mM PS/11 mM PC). The reaction mixtures contain the assay buffer with a final DLG concentration of 125 μM ATP concentrations of 25 μM (for DGKA assay) or 50 μM (for DGKZ assay). The reactions were started by addition of DGK α and ζ kinases at 4 nM and 2 nM final concentrations, respectively. After 1 hour reaction, the amount of ADP formed was detected with the ADP-Glo kinase assay (Promega) according to the manufacturer instructions. Compounds were added in 11I-points dose response, starting at 10 mM, 1:3 dilutions, with a final DMSO concentration of […]. The multidrop combi was used as a liquid handler and luminescence was read with 0.5 s by the envision reader (PE).

[2] = target: T2, hDGKalpha(1-735)-N-His (DGKA) (Homo sapiens, UniProt P23743); assay: In vitro DGK inhibition assay (ADP-Glo, in house), DGK alpha; format: biochemical; conditions: isomer A; 4 nM DGK α, 25 μM ATP, 125 μM DLG in liposomes, 1 hour reaction; read-out: DGKalpha ADP Glo assay IC50
T2 construct: hDGKalpha(1-735)-N-His; His (N)
Experimental: as §1, §2, §3, §4

T2 sequence (P23743 whole entry): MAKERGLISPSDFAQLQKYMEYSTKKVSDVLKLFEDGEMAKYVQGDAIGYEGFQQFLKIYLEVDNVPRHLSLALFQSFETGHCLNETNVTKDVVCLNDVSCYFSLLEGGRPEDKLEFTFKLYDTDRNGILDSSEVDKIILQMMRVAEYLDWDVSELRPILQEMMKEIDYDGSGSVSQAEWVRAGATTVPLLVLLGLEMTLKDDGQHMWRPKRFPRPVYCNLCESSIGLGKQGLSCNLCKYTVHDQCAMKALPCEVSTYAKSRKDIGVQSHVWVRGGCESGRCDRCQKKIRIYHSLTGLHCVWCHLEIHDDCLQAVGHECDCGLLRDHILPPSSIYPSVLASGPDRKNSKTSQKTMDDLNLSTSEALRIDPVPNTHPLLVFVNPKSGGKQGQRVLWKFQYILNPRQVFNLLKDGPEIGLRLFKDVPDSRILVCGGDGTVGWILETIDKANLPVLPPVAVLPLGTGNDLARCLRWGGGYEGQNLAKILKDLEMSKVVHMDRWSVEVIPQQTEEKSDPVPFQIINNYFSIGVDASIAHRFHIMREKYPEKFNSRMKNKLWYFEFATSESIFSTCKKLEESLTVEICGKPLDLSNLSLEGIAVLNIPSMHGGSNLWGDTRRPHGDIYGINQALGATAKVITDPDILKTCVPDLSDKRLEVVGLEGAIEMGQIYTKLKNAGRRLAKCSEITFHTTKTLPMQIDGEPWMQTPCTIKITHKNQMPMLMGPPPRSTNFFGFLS
T1 sequence (Q13574 whole entry): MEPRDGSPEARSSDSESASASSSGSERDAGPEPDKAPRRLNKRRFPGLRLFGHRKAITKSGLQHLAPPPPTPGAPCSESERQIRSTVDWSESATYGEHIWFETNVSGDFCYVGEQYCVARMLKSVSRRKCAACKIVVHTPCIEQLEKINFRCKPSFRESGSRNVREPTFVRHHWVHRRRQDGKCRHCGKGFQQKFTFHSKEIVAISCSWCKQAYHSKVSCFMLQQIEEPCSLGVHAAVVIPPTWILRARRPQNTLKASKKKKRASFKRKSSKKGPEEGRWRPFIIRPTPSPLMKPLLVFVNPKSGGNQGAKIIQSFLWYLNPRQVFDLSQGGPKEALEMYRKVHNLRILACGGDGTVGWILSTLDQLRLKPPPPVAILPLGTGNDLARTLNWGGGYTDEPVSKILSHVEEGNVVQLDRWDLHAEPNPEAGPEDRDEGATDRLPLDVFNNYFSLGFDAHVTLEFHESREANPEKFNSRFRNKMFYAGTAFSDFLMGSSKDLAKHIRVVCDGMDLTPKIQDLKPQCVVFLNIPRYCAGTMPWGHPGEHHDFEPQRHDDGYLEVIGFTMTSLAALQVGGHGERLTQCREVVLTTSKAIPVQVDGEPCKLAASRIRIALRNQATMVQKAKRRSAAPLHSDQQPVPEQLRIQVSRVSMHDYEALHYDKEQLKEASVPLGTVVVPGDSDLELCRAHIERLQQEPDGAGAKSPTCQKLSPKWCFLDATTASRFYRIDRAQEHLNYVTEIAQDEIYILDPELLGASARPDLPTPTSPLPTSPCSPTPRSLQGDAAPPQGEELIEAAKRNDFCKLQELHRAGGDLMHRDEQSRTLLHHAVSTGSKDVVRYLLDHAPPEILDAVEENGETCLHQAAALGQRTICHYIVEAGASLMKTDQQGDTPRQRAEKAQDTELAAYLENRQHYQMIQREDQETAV

| SMILES | IC50 [1] | IC50 [2] |
| --- | --- | --- |
| N[C@@H]1CC(F)(F)c2cc(F)c(-c3nnc(N4CCCC4)o3)cc2N(Cc2ccc(-n3cnc(C(F)(F)F)n3)cc2)C1=O (single isomer, unassigned) [Example 21] | 11.8 µM | 10.9 µM |
| N[C@@H]1CC(F)(F)c2cc(F)c(-c3nnc(N4CCC(F)(F)C4)o3)cc2N(Cc2ccc(-n3cnc(C(F)(F)F)n3)cc2)C1=O (single isomer, unassigned) [Example 22] | 17.8 µM | 10.6 µM |
| CC(C)(c1nnc(-c2cc3c(cc2F)C(F)(F)C[C@@H](N)C(=O)N3Cc2ccc(-n3cnc(C(F)(F)F)n3)cc2)o1)S(C)(=O)=O (single isomer, unassigned) [Example 23] | 15.4 µM | 14.1 µM |
| CC(C)(C#N)c1nnc(-c2cc3c(cc2F)C(F)(F)C[C@@H](N)C(=O)N3Cc2ccc(-c3ccc(C(F)(F)F)cc3)nc2)o1 (single isomer, unassigned) [Example 28] | 11.2 µM | 31.7 µM |
| CC(C)(c1nnc(-c2cc3c(cc2F)C(F)(F)C[C@@H](N)C(=O)N3Cc2ccc(-n3cc(C(F)(F)F)cn3)cc2)o1)S(C)(=O)=O (single isomer, unassigned) [Example 29] | 13.9 µM | 0.551 µM |
| CC(C)(c1nnc(-c2cc3c(cc2F)C(F)(F)C[C@@H](N)C(=O)N3Cc2ccc(-c3ccc(C(F)(F)F)cc3)cc2)o1)S(C)(=O)=O (single isomer, unassigned) [Example 32] | 33.8 µM | 51.3 µM |
| COCCN1CC(c2nnc(-c3cc4c(cc3F)C(F)(F)C[C@@H](N)C(=O)N4Cc3ccc(-c4ccc(C(F)(F)F)cn4)cc3)o2)CC(F)(F)C1 (single isomer, unassigned) [Example 34] | 11.1 µM | > 60 µM |
| COC(=O)N1CC2CC(c3nnc(-c4cc5c(cc4F)C(F)(F)C[C@@H](N)C(=O)N5Cc4ccc(-c5ccc(C(F)(F)F)cn5)cc4)o3)(C2)C1 (single isomer, unassigned) [Example 35] | > 19 µM | > 19 µM |

These reach a lower IC50 [1]. Values come first.

| IC50 [1] | IC50 [2] | SMILES |
| --- | --- | --- |
| 10.2 µM | 26.4 µM | CC(C)(C#N)c1nnc(-c2cc3c(cc2F)C(F)(F)C[C@@H](N)C(=O)N3Cc2ccc(-n3ccc(C(F)(F)F)n3)cc2)o1 (single isomer, unassigned) [Example 30] |
| 8.82 µM | 0.425 µM | CC(C)(c1nnc(-c2cc3c(cc2F)C(F)(F)C[C@@H](N)C(=O)N3Cc2ccc(-c3ccc(OC(F)(F)F)cn3)cc2)o1)S(C)(=O)=O (single isomer, unassigned) [Example 26] |
| 7.24 µM | 41.6 µM | CC(C)(C#N)c1nnc(-c2cc3c(cc2F)C(F)(F)C[C@@H](N)C(=O)N3Cc2ccc(-c3ncc(C(F)(F)F)cc3F)cc2)o1 (single isomer, unassigned) [Example 19] |
| 2.4 µM | 1.86 µM | CC(C)(C#N)c1nnc(-c2cc3c(cc2F)C(F)(F)C[C@@H](N)C(=O)N3Cc2ccc(-c3ccc(OC(F)(F)F)cn3)cc2)o1 (single isomer, unassigned) [Example 24] |
| 2.26 µM | 9.25 µM | CCN1CC(c2nnc(-c3cc4c(cc3F)C(F)(F)C[C@@H](N)C(=O)N4Cc3ccc(OC(F)(F)F)cc3)o2)CC(F)(F)C1 (single isomer, unassigned) [Example 13] |
| 2.14 µM | 7.18 µM | CC(C)(C#N)c1nnc(-c2cc3c(cc2F)C(F)(F)C[C@@H](N)C(=O)N3Cc2ccc(-n3nnc(C(F)(F)F)n3)cc2)o1 (single isomer, unassigned) [Example 20] |
| 1.82 µM | 24.6 µM | CC(C)(C#N)c1nnc(-c2cc3c(cc2F)C(F)(F)C[C@@H](N)C(=O)N3Cc2ccc(-c3cc(C(F)(F)F)ccn3)cc2)o1 (single isomer, unassigned) [Example 27] |
| 1.81 µM | 39.6 µM | N[C@@H]1CC(F)(F)c2cc(F)c(-c3nnc(N4CCC(F)(F)CC4)o3)cc2N(Cc2ccc(-c3noc(C(F)(F)F)n3)cc2)C1=O (single isomer, unassigned) [Example 15] |

From US20250236614A1, “BICYCLIC TETRAHYDROAZEPINE DERIVATIVES” (Hoffmann-La Roche Inc., priority 2022, published 2025)
